Data as given in ChEMBL document CHEMBL1145422, “Spongian diterpenoids from the sponge Spongia (Heterofibria) sp” (2007).

Test: Effect on lysosomal activation in mouse splenocytes at 100 ug/mL relative to control
Assay type: functional

SMILES | Activity
CC(=O)OC[C@@]1(C)CCC[C@]2(C)[C@H]3CCc4cocc4[C@]3(C)CC[C@@H]12 | 130%
CC(=O)OC[C@]1(C)[C@@H]2CC[C@@]3(C)c4cocc4CC[C@@H]3[C@@]2(C)CC[C@@H]1OC(C)=O | 130%
